Experimental data published in patent US9561228B2 (Celgene Avilomics Research, Inc., priority 2013, dated 2017).

How the values were obtained:
Assay type in all cases: cell-based
[1] = test system: ERK1/2 phosphorylation of p90RSK in A375 cells; test: Detection of total and phosphor-RSK by MSD ELISA (A375); conditions: Homo sapiens, A-375, read-out: ERK1/ERK2 PRSK A375 EC50
In short: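 A375 cells serum-starved overnight in DMEM/0.1% FBS, then treated 2 h at 37° C with compound (1000× DMSO dilutions into medium). Lysates captured on RSK antibody-coated MSD plates; phospho-RSK (Ser380) and total RSK detected with SulfoTag secondary antibodies by electrochemiluminescence.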

[2] = test system: HT-29 cells (colorectal adenocarcinoma); test: Inhibition of cancer cell proliferation, HT-29 (CellTiterGlo, 72 hours); conditions: Homo sapiens
In short: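 HT-29 cells seeded at 3000/well, then treated with 3-fold serial dilutions from a 5,000 nM two-fold solution in serum-free RPMI1640, untreated wells as control, for 72 h at 37° C. CellTiterGlo luminescence converted to cell number via a standard curve; GI50 from percent inhibition versus untreated growth.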

[3] = test system: HCT116 cells (colorectal carcinoma); test: Inhibition of cancer cell proliferation, HCT116 (CellTiterGlo, 72 hours); conditions: Homo sapiens, HCT-116
In short: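 3000 cells per well exposed to 3-fold serial compound dilutions from 5,000 nM (two-fold solution, stock level) for 72 hours at 37° C. CellTiterGlo luminescence converted to cell number via a standard curve; percent inhibition vs untreated wells, GI50 by curve fit.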

Row | EC50 [1] [nM] | GI50 [2] [nM] | GI50 [3] [nM] | Structure (SMILES)
1 | 101 to 500 | < 100 | < 100 | C=CC(=O)Nc1cc(OC)ccc1Nc1nc(Nc2cc(OC)nc(N3CCN(CC)CC3)c2)ncc1C(F)(F)F [Compound I-88, N-(2-((2-((2-(4-Ethylpiperazin-1-yl)-6-methoxypyridin-4-yl)amino)-5-(trifluoromethyl)pyrimidin-4-yl)amino)-5-methoxyphenyl)acrylamide]
2 | < 100 | < 100 | < 100 | C=CC(=O)Nc1cc(C)ccc1Nc1nc(N[C@H]2CCCN(C(=O)CO)C2)ncc1Cl [Compound I-140, (S)—N-(2-((5-chloro-2-((1-(2-hydroxyacetyl)piperidin-3-yl)amino)pyrimidin-4-yl)amino)-5-methylphenyl)acrylamide]
3 | 101 to 500 | < 100 | < 100 | C=CC(=O)Nc1cc(C)ccc1Nc1nc(Nc2cc(OC)nc(N3CCN(CC)CC3)c2)ncc1C(F)(F)F [Compound I-89, N-(2-((2-((2-(4-Ethylpiperazin-1-yl)-6-methoxypyridin-4-yl)amino)-5-(trifluoromethyl)pyrimidin-4-yl)amino)-5-methylphenyl)acrylamide]
4 | 101 to 500 | < 100 | 101 to 500 | C=CC(=O)Nc1cc(C)ccc1Nc1nc(Nc2cc(OC)nc(N(C)C3CC3)c2)ncc1C(F)(F)F [Compound I-342, N-(2-((2-((2-(cyclopropyl(methyl)amino)-6-methoxypyridin-4-yl)amino)-5-(trifluoromethyl)pyrimidin-4-yl)amino)-5-methylphenyl)acrylamide]
5 | 101 to 500 | > 1000 | > 1000 | C=CS(=O)(=O)Nc1cc(C)ccc1Nc1nc(Nc2cc(OC)ncc2C)ncc1C(F)(F)F [Compound I-333, N-(2-((2-((2-methoxy-5-methylpyridin-4-yl)amino)-5-(trifluoromethyl)pyrimidin-4-yl)amino)-5-methylphenyl)ethenesulfonamide]
6 | < 100 | 101 to 500 | 101 to 500 | C=CC(=O)Nc1cc(F)ccc1Nc1nc(Nc2cc(OC)ncc2C)ncc1C(F)(F)F [Compound I-322, N-(5-fluoro-2-((2-((2-methoxy-5-methylpyridin-4-yl)amino)-5-(trifluoromethyl)pyrimidin-4-yl)amino)phenyl)acrylamide]
7 | < 100 | 101 to 500 | 501 to 999 | C=CC(=O)Nc1ccccc1Nc1nc(Nc2cc(OC)ccc2C)ncc1C(F)(F)F [Compound I-340, N-(2-((2-((5-methoxy-2-methylphenyl)amino)-5-(trifluoromethyl)pyrimidin-4-yl)amino)phenyl)acrylamide]
8 | 101 to 500 | < 100 | < 100 | C=CC(=O)Nc1ccccc1Nc1nc(Nc2cc(C(N)=O)ccc2C)ncc1C(F)(F)F [Compound I-68, 3-(4-(2-Acrylamidophenylamino)-5-(trifluoromethyl)pyrimidin-2-ylamino)-4-methylbenzamide]
9 | < 100 | < 100 | < 100 | C=CC(=O)Nc1cc(OC)ccc1Nc1nc(Nc2cc(OC)nc(N3CCN(C)CC3)c2)ncc1C(F)(F)F [Compound I-334, N-(5-methoxy-2-((2-((2-methoxy-6-(4-methylpiperazin-1-yl)pyridin-4-yl)amino)-5-(trifluoromethyl)pyrimidin-4-yl)amino)phenyl)acrylamide]
10 | < 100 | 101 to 500 | 501 to 999 | C=CC(=O)Nc1cc(C)ccc1Nc1nc(Nc2cc(OC)ncc2C)ncc1C(F)(F)F [Compound I-90, N-(2-((2-((2-Methoxy-5-methylpyridin-4-yl)amino)-5-(trifluoromethyl)pyrimidin-4-yl)amino)-5-methylphenyl)acrylamide]
11 | 101 to 500 | < 100 | < 100 | C=CC(=O)Nc1cc(OC)ccc1Nc1nc(N[C@H]2CCCN(C(=O)CO)C2)ncc1C(F)(F)F [Compound I-64, (S)—N-(2-((2-((1-(2-Hydroxyacetyl)piperidin-3-yl)amino)-5-(trifluoromethyl)pyrimidin-4-yl)amino)-5-methoxyphenyl)acrylamide]
12 | 101 to 500 | < 100 | < 100 | C=CC(=O)Nc1ccccc1Nc1nc(Nc2cc(OC)nc(N3CCN(C)CC3)c2)ncc1C(F)(F)F [Compound I-324, N-(2-((2-((2-methoxy-6-(4-methylpiperazin-1-yl)pyridin-4-yl)amino)-5-(trifluoromethyl)pyrimidin-4-yl)amino)phenyl)acrylamide]
13 | < 100 | 101 to 500 | 501 to 999 | C=CC(=O)Nc1cc(C(F)(F)F)ccc1Nc1nc(Nc2cc(OC)ncc2C)ncc1C(F)(F)F [Compound I-323, N-(2-((2-((2-methoxy-5-methylpyridin-4-yl)amino)-5-(trifluoromethyl)pyrimidin-4-yl)amino)-5-(trifluoromethyl)phenyl)acrylamide]
14 | 101 to 500 | < 100 | < 100 | C=CC(=O)Nc1cc(C)ccc1Nc1nc(Nc2cc(OC)nc(N3CCOCC3)c2)ncc1C(F)(F)F [Compound I-94, N-(2-((2-((2-Methoxy-6-morpholinopyridin-4-yl)amino)-5-(trifluoromethyl)pyrimidin-4-yl)amino)-5-methylphenyl)acrylamide]
15 | < 100 | < 100 | < 100 | C=CC(=O)Nc1ccccc1Nc1nc(Nc2cc(NCCOC)nc(OC)c2)ncc1C(F)(F)F [Compound I-286, N-(2-((2-((2-Methoxy-6-((2-methoxyethyl)amino)pyridin-4-yl)amino)-5-(trifluoromethyl)pyrimidin-4-yl)amino)phenyl)acrylamide]
16 | < 100 | < 100 | < 100 | C=CC(=O)Nc1cc(C)ccc1Nc1nc(Nc2cc(OC)nc(N3CC(O)C3)c2)ncc1C(F)(F)F [Compound I-328, N-(2-((2-((2-(3-hydroxyazetidin-1-yl)-6-methoxypyridin-4-yl)amino)-5-(trifluoromethyl)pyrimidin-4-yl)amino)-5-methylphenyl)acrylamide]
17 | 501 to 999 | < 100 | 101 to 500 | C=CC(=O)Nc1ccccc1Nc1nc(Nc2ccnnc2)ncc1C(F)(F)F [Compound I-293, N-(2-((2-(Pyridazin-4-ylamino)-5-(trifluoromethyl)pyrimidin-4-yl)amino)phenyl)acrylamide]
18 | < 100 | < 100 | < 100 | C=CC(=O)Nc1cc(C)ccc1Nc1nc(Nc2cc(NC3CC3)nc(OC)c2)ncc1C(F)(F)F [Compound I-337, N-(2-((2-((2-(cyclopropylamino)-6-methoxypyridin-4-yl)amino)-5-(trifluoromethyl)pyrimidin-4-yl)amino)-5-methylphenyl)acrylamide]
19 | < 100 | < 100 | < 100 | C=CC(=O)Nc1cc(OC)ccc1Nc1nc(Nc2cc(OC)nc(N3CCN(C(C)=O)CC3)c2)ncc1C(F)(F)F [Compound I-91, N-(2-((2-((2-(4-Acetylpiperazin-1-yl)-6-methoxypyridin-4-yl)amino)-5-(trifluoromethyl)pyrimidin-4-yl)amino)-5-methoxyphenyl)acrylamide]
